Data on eleven compounds can be found in PubChem BioAssay (NCI).

Among the test systems are BT-549 breast; CAKI-1 renal; COLO 205 colon; EKVX NSCLC; HOP-92 NSCLC; HS 578T breast; HT29 colon; IGROV1 ovarian; SNB-75 CNS; UO-31 renal.
What all share (assay): growth of human tumour cells (NCI), 48 h

Where “and” joins values, the source holds several entries; their conditions need not be identical. Identical values can stand only once.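 Briefly, cells in 96-well plates were exposed to five compound concentrations for 48 h, and endpoints were estimated by linear interpolation. At the GI50, growth is halved. Definition used: TGI = concentration required for complete inhibition of growth.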

On to `COC(=O)CSSCc1ccc([N+](=O)[O-])cc1`, for which the TGI with BT-549 breast is 41700 nM; in the assay with CAKI-1 renal, 8090 nM; in the assay with COLO 205 colon, 37700 nM; in the assay on EKVX NSCLC it was 69200 nM; with HOP-92 NSCLC, > 100000 nM; in the assay on HS 578T breast it was 59400 nM. Besides, the TGI in the assay with HT29 colon came to 60800 nM; with IGROV1 ovarian, 17100 nM; in the assay on SNB-75 CNS it was 55200 nM; in the assay on UO-31 renal, 27900 nM.

Regarding `COc1ccc(N(C)c2nc(N)nc3sc4c(c23)CCCC4)cc1`, the GI50 is 12.3 nM with BT-549 breast; < 13.7 nM in the assay with CAKI-1 renal; 21 nM with COLO 205 colon; < 10 nM in the assay with EKVX NSCLC; < 18.7 nM in the assay on HOP-92 NSCLC; < 10 nM with HS 578T breast. In addition, the GI50 in the assay with HT29 colon, in the assay with IGROV1 ovarian, in the assay with SNB-75 CNS and in the assay with UO-31 renal was < 10 nM in each case. Also, the TGI came to 10500 nM with BT-549 breast; 15400 nM with CAKI-1 renal; 57.3 nM in the assay with COLO 205 colon; 18700 nM in the assay with EKVX NSCLC; 6810 nM in the assay with HOP-92 NSCLC; 10300 nM in the assay with HS 578T breast. Besides, the TGI with HT29 colon amounted to 12100 nM; with IGROV1 ovarian, 13000 nM; with SNB-75 CNS, 13200 nM; in the assay with UO-31 renal it was 14200 nM.

Take `CC[C@H](C)[C@H](NC(=O)[C@H]1CCCCN1C)C(=O)N(C)[C@H](C[C@@H](OC(C)=O)c1nc(C(=O)N[C@@H](Cc2ccccc2)C[C@H](C)C(=O)O)cs1)C(C)C`: the GI50 in the assay on BT-549 breast is 0.676 nM and < 1.65 nM; with CAKI-1 renal it was 1.97 nM; in the assay with COLO 205 colon, 0.394 nM; in the assay on EKVX NSCLC, 0.979 nM and 1.65 nM; in the assay with HOP-92 NSCLC, 7240 nM; in the assay on HS 578T breast, 1.01 nM and 1.65 nM. Also, the GI50 in the assay on HT29 colon is 0.356 nM and 1.65 nM; with IGROV1 ovarian, 6.04 nM and 1.65 nM; in the assay on SNB-75 CNS, 0.568 nM and 1.65 nM; in the assay on UO-31 renal it was 7.88 nM and 1.65 nM. The TGI was 2.75 nM in the assay on COLO 205 colon; > 16500 nM in the assay on EKVX NSCLC; > 16500 nM with HOP-92 NSCLC; > 16500 nM with HS 578T breast; 2 nM with HT29 colon; > 16500 nM with IGROV1 ovarian. The TGI with SNB-75 CNS and in the assay on UO-31 renal was > 16500 nM in each case.

As to `CO[C@H]1C[C@@H]2CC[C@@H](C)[C@@](O)(O2)C(=O)C(=O)N2CCCC[C@H]2C(=O)O[C@H]([C@H](C)C[C@@H]2CC[C@@H](OCCO)[C@H](OC)C2)CC(=O)[C@H](C)C=C(C)[C@@H](O)[C@@H](OC)C(=O)[C@H](C)C[C@H](C)/C=C/C=C/C=C1C`, the GI50 was < 10 nM in the assay with BT-549 breast; 12300 nM in the assay with COLO 205 colon; < 10 nM in the assay on EKVX NSCLC; 19.9 nM in the assay on HOP-92 NSCLC; < 10 nM in the assay with HS 578T breast; 2550 nM in the assay on HT29 colon. The GI50 in the assay with IGROV1 ovarian, with SNB-75 CNS and in the assay on UO-31 renal was < 10 nM in each case. Also, the TGI in the assay on CAKI-1 renal is 21000 nM; with COLO 205 colon, 30100 nM; in the assay on EKVX NSCLC, 21500 nM; with HOP-92 NSCLC, 20000 nM; with HT29 colon, 21100 nM; in the assay on IGROV1 ovarian it was 17000 nM. The TGI in the assay with SNB-75 CNS was found to be 14100 nM; with UO-31 renal it was 14500 nM.

Consider `CCCCCCCCCCCC[n+]1ccc2ccccc2c1`, for which the GI50 in the assay with BT-549 breast was 907 nM; in the assay on CAKI-1 renal it was 1650 nM; in the assay with COLO 205 colon it was 1220 nM; with EKVX NSCLC, 400 nM; in the assay on HOP-92 NSCLC it was 300 nM; with HS 578T breast, 1540 nM. Also, the GI50 in the assay with HT29 colon is 419 nM; with IGROV1 ovarian, 413 nM; with SNB-75 CNS, 1140 nM; with UO-31 renal it was 1190 nM. Besides, the TGI with BT-549 breast turned out to be 2490 nM; in the assay on CAKI-1 renal, 5060 nM; with COLO 205 colon it was 2590 nM; in the assay with EKVX NSCLC, 1770 nM; in the assay on HOP-92 NSCLC, 1790 nM; in the assay with HS 578T breast, 3880 nM. The TGI is 2140 nM in the assay on HT29 colon, 1850 nM in the assay with IGROV1 ovarian, 2780 nM in the assay with SNB-75 CNS and 3230 nM in the assay with UO-31 renal.

As for `CCN(CC)Cc1cc2[nH]c3c4ccc(Cl)cc4ncc3c2cc1OC`, the GI50 with BT-549 breast was 13700 nM and 16000 nM; in the assay on CAKI-1 renal, 3360 nM and 2300 nM; in the assay on COLO 205 colon, 3690 nM and 1790 nM; in the assay with EKVX NSCLC, 12100 nM and 11800 nM; in the assay with HOP-92 NSCLC, 5140 nM; in the assay on HS 578T breast, 2290 nM and 2540 nM. Also, the GI50 was 1780 nM and 1910 nM in the assay on HT29 colon; 2130 nM and 3420 nM in the assay on IGROV1 ovarian; 1610 nM and 1810 nM in the assay on SNB-75 CNS; 4250 nM and 1590 nM in the assay with UO-31 renal. Also, the TGI in the assay on BT-549 breast was 27200 nM and 29600 nM; with CAKI-1 renal, 9140 nM and 9800 nM; with COLO 205 colon, 8540 nM and 3260 nM; with EKVX NSCLC, 24900 nM and 24400 nM; in the assay on HOP-92 NSCLC, 22100 nM; with HS 578T breast, 7090 nM and 8340 nM. Besides, the TGI is 5600 nM and 4820 nM in the assay on HT29 colon; 12400 nM and 13600 nM with IGROV1 ovarian; 3920 nM and 3880 nM in the assay on SNB-75 CNS; 8930 nM and 3830 nM with UO-31 renal.

In the case of `COc1nnc2ccc(N3CCC(c4ccc(OCCN5CCN(C)C(=O)[C@H]5C)cc4)CC3)nn12`, the GI50 in the assay with BT-549 breast is 1870 nM; in the assay on CAKI-1 renal it was 23.7 nM; with COLO 205 colon, 55.3 nM; with EKVX NSCLC, 239 nM; in the assay on HOP-92 NSCLC, 54.1 nM; in the assay with HS 578T breast, 41.9 nM. The GI50 is 39.2 nM with HT29 colon, 87.6 nM with IGROV1 ovarian, 14.4 nM in the assay on SNB-75 CNS and 39.6 nM in the assay on UO-31 renal. The TGI in the assay on BT-549 breast was > 100000 nM; with CAKI-1 renal, > 100000 nM; with COLO 205 colon, > 100000 nM; in the assay with EKVX NSCLC, > 100000 nM; in the assay with HOP-92 NSCLC it was > 65300 nM; in the assay on HS 578T breast, > 62700 nM. Besides, the TGI was > 100000 nM with HT29 colon, > 100000 nM in the assay with IGROV1 ovarian, 73700 nM in the assay with SNB-75 CNS and > 100000 nM in the assay on UO-31 renal.

Take `N=c1c2c(=N)n3c(nc2nc2n1-c1ccccc1Sc1ccccc1-2)sc1cc(Cl)ccc13`: the GI50 is 3970 nM in the assay with BT-549 breast; 1940 nM in the assay on CAKI-1 renal; 3720 nM in the assay with COLO 205 colon; 1240 nM in the assay on EKVX NSCLC; 517 nM in the assay with HOP-92 NSCLC; 1780 nM with HS 578T breast. In addition, the GI50 with HT29 colon was 3430 nM; in the assay on IGROV1 ovarian it was 3510 nM; with SNB-75 CNS, 1830 nM; with UO-31 renal it was 1290 nM. Moreover, the TGI with BT-549 breast was > 100000 nM; in the assay on CAKI-1 renal it was > 100000 nM; in the assay on COLO 205 colon it was 32500 nM; in the assay on EKVX NSCLC, 7460 nM; with HOP-92 NSCLC it was 4150 nM; in the assay with HS 578T breast it was 7010 nM. Further, the TGI was > 100000 nM in the assay with HT29 colon, 35400 nM in the assay with IGROV1 ovarian, 65400 nM in the assay with SNB-75 CNS and 7680 nM with UO-31 renal.

On to `CCC(=O)c1c(C(F)(F)F)n([O-])c2cc(F)c(F)cc2[n+]1=O`, for which the GI50 in the assay with BT-549 breast is 1520 nM; with CAKI-1 renal, 329 nM; in the assay on COLO 205 colon, 466 nM; in the assay on EKVX NSCLC, 2190 nM; with HOP-92 NSCLC, 762 nM; in the assay with HS 578T breast it was 1790 nM. For the same compound, the GI50 was 228 nM in the assay on HT29 colon, 520 nM in the assay with IGROV1 ovarian, 2580 nM in the assay with SNB-75 CNS and 971 nM with UO-31 renal. Also, the TGI in the assay on BT-549 breast turned out to be 3050 nM; in the assay with CAKI-1 renal, 1030 nM; in the assay on COLO 205 colon, 3160 nM; in the assay with EKVX NSCLC, 4910 nM; in the assay on HOP-92 NSCLC, 2190 nM; in the assay on HS 578T breast it was 5820 nM. For the same compound, the TGI in the assay with HT29 colon turned out to be 492 nM; with IGROV1 ovarian it was 1490 nM; in the assay with SNB-75 CNS it was 4440 nM; in the assay with UO-31 renal, 3050 nM.

As for `Cn1ncc(Cl)c1-c1cc(C(=O)N[C@H](CN)Cc2ccc(F)c(F)c2)oc1Cl`, the GI50 is 511 nM and 412 nM in the assay with BT-549 breast; 1900 nM and 870 nM in the assay on CAKI-1 renal; 593 nM and 575 nM in the assay on COLO 205 colon; 2770 nM in the assay on EKVX NSCLC; 139 nM and 191 nM with HOP-92 NSCLC; 90.5 nM and 126 nM in the assay with HS 578T breast. The GI50 in the assay on HT29 colon was 1150 nM and 346 nM; in the assay on IGROV1 ovarian, 26.8 nM and 20.1 nM; in the assay with SNB-75 CNS, 50.8 nM and 27 nM; in the assay on UO-31 renal, 970 nM and 360 nM. The TGI is 3710 nM and 3020 nM with BT-549 breast; 14200 nM and > 5200 nM in the assay with CAKI-1 renal; 5840 nM and 3220 nM in the assay with COLO 205 colon; > 10000 nM with EKVX NSCLC; 2420 nM and 1420 nM in the assay on HOP-92 NSCLC; 2080 nM and 2860 nM in the assay with HS 578T breast. Besides, the TGI with HT29 colon was 15000 nM and > 10000 nM; with IGROV1 ovarian it was 3620 nM and 1430 nM; in the assay on SNB-75 CNS it was 1400 nM and 846 nM; with UO-31 renal, 11700 nM and > 7680 nM.

For the compound `O=C1/C=C/[C@@H](O)[C@@H]2C[C@@H](O)C[C@H]2/C=C/CCC[C@H](C(F)(F)F)O1`, the GI50 in the assay with BT-549 breast is 211 nM; in the assay on CAKI-1 renal, 178 nM; in the assay on COLO 205 colon it was 38.1 nM; in the assay with EKVX NSCLC it was 1330 nM; in the assay on HOP-92 NSCLC it was 126 nM; with HS 578T breast it was 347 nM. For the same compound, the GI50 with HT29 colon is 67.8 nM; in the assay on IGROV1 ovarian, 561 nM; in the assay with SNB-75 CNS, 60.3 nM; in the assay with UO-31 renal, 81.3 nM. The TGI with BT-549 breast was 10800 nM; in the assay with CAKI-1 renal, 27400 nM; in the assay with COLO 205 colon, 150 nM; in the assay with EKVX NSCLC, > 100000 nM; with HOP-92 NSCLC, 568 nM; with HS 578T breast it was > 100000 nM. Further, the TGI in the assay on HT29 colon is 380 nM; in the assay on IGROV1 ovarian, 4160 nM; in the assay with SNB-75 CNS, > 100000 nM; with UO-31 renal it was 2250 nM.
